The values that follow come from ChEMBL document CHEMBL1149690, “Membrane permeable esterase-activated fluorescent imaging probe” (Bioorg Med Chem Lett, 2007).

A short description of series [1]: Chemical stability assessed as hydrolysis at pH below 1. It is filed as physicochemical.
Series [2] can be described thus: Chemical stability assessed as hydrolysis at pH 3 to 9 after 1.5 hrs. It is filed as physicochemical. The following applies: buffer, pH 3, 1.5 h.
A short description of series [3]: Chemical stability assessed as hydrolysis at pH more than 10. It is filed as physicochemical.
Series [4] is described as follows: Photostability after 30 mins assessed by fluorescence intensity. In kind it is ADME. The conditions noted are these: 0.5 h.

Consider `CCCN1/C(=C/C=C2\CCCC(/C=C/C3=[N+](CCC)c4ccccc4C3(C)C)=C2OC(C)=O)C(C)(C)c2ccccc21.[I-]`, for which the Activity result is on record as “Active” in series [1], “Not Active” in series [2] and “Active” in series [3].

On to `CCCN1/C(=C/C=C2\CCC/C(=C\C=C3\N(CCC)c4ccccc4C3(C)C)C2=O)C(C)(C)c2ccccc21`, for which the Fluorescence intensity in series [4] is under 15%.
